# Assay results reported in patent publication US7026343B2, “Pharmacologic inhibition of Myc function” (University of Pittsburgh - of the Commonwealth System of …, priority 2002, dated 2006).
# How the values were obtained:
# [1] = tested on: Rat1a-c-Myc cells; test: Cell cycle profiles by propidium iodide flow cytometry; type: cell-based, rat; details: 24 h, concentrations of FIG. 4
# Protocol: This assay was performed as previously described (Nesbit C. E., Grove L. E., Yin X. Y. and Prochownik E. V. (1998), Cell Growth Differ., 9:731–741; Nesbit C. E., Tersak J. M., Grove L. E., Drzal A., Choi H. and Prochownik E. V. (2000), Oncogene, 19:3200–3212; and Yin X. Y., Grove L., Datta N., Katula K., Long M. W. and Prochownik E. V. (2001), Cancer Res., 61:6487–6493). Cell cycle profiles were performed on propidium iodide-stained nuclei as previously described (Yin et al., (1999a)) using a Becton-Dickinson FACStar flow cytometer. A total of 2×10^4 cells were analyzed in triplicate for each point and quantitation was performed using single histogram statistics.
# In contrast to c-Myc's promotion of cell cycle progression, its inhibition halts this process and results in an accumulation of cells in G0/G1 (Freytag S. O. (1988), Mol. Cell. Biol., 8:1614–1624; Prochownik et al., 1988 and deAlboran et al., 2001). Therefore, it was asked whether any of the above compounds could affect the cell cycle profiles of otherwise actively proliferating cells. Rat1a-c-Myc cells were plated at low concentrations and grown for 2 additional days until attaining approximately 30% confluency. The cells were then re-fed with fresh medium alone, medium containing DMSO only, or medium containing each of the Myc-Max-specific compounds. After 24 h, cells were harvested and cell cycle profiles were generated by flow cytometry following propidium iodide staining (Yin et al., 2001). […] In contrast, all of the compounds tested caused significant increases in the fraction of the G0/G1 population.
# [2] = tested on: Rat1a-c-Myc cells; test: In vivo tumor growth of pre-treated Rat1a-c-Myc cells in nude mice; details: cells exposed 3 days to compound, then inoculated subcutaneously; no further compound
# Protocol: All growth curves were performed in 12-well tissue culture plates as previously described (Yin et al., (1999b)). Rat1a-neo, Rat1a-c-Myc, and TGR-1 fibroblasts were seeded at an initial density of 2×10^3 cells/well whereas HO15.19 c-Myc KO cells were seeded at 5×10^3 cells/well. The following day, each compound, or DMSO vehicle alone, was added to the indicated final concentrations. Fresh medium and compound were added every 3–4 days. Cells were trypsinized and manually counted at the indicated times. […] For in vivo assays, Rat1a-c-Myc cells were grown to approximately 50% confluency. Fresh medium plus the indicated compounds, or DMSO vehicle alone, were then added to cells for an additional 3 days. At the end of this time, none of the cultures contained fewer than […] apoptotic cells as determined by trypan blue staining and TUNEL assays. The cells were then washed twice in PBS, trypsinized and resuspended in a minimal volume of fresh medium containing the same concentration of compound. In total, 2×10^7 cells were then inoculated subcutaneously into the flanks of nude mice (five animals per group) and no additional compound was administered for the duration of the experiment. Tumor growth was monitored weekly and the average tumor volume ([…].) was calculated as previously described (Yin X. Y., Grove E., Rogulski K. and Prochownik E. V., (2002), J. Biol. Chem., 277:19998–20010).
# Rat1a-c-Myc cells form rapidly growing tumors in nude mice (Yin et al., 1999b). […] Rat1a-c-Myc cells were therefore exposed to the indicated Myc-Max-specific compounds for 3 days at the concentrations shown in FIG. 4. […] These cells were then inoculated into nude mice and monitored for tumor formation. Rat1a-c-Myc cells that had been incubated for 3 days in DMSO vehicle only served as a positive control.
# Rat1a-c-Myc cells were exposed to the indicated Myc-Max-specific compounds for 3 days at the concentrations shown in FIG. 4, and then inoculated subcutaneously into the flanks of nude mice (five animals per group). Based on trypan blue staining, >95% of the inoculated cells were viable at the time of inoculation. Tumor growth was monitored and recorded weekly. Each point indicates the average tumor volume among the groups ±1 s.e.
SMILES,% of cells in G0/G1 [1] [%],% of cells in G2/M [1] [%],% of cells in S [1] [%],inhibition of in vivo tumor growth [2]
"O=[N+]([O-])c1ccc(Nc2ccccc2-c2ccccc2)c2nonc12 [#10074G4, biphenyl-2-yl-(7-nitro-benzo[1,2,5]oxadiazol-4-yl)-amine]",53.9,7.4,38.7,
"O=C1CSC(=O)N1CC(O)Cn1c2ccc(Cl)cc2c2cc(Cl)ccc21 (stereo not shown) [#10074A4, 3-[3-(3,6-dichloro-carbazol-9-yl)-2-hydroxy-propyl]-thiazolidine-2,4-dione]",68.7,9.8,21.5,inhibition of in vivo tumor growth
"CCCOc1ccc(N2C(=O)CC(N3CCC(C(=O)O)CC3)C2=O)cc1 (stereo not shown) [#10031, 1-[2,5-dioxo-1-(4-propoxy-phenyl)-pyrrolidin-3-yl]-piperidine-4-carboxylic acid]",60.9,5.2,33.9,
"CCN(CC)C1CC(=O)N(c2cccc(Cl)c2)C1=O (stereo not shown) [#10075, 1-(3-Chloro-phenyl)-3-diethylamino-pyrrolidine-2,5-dione]",65.1,10.7,24.2,
"CCc1ccc(C=C2SC(=S)NC2=O)cc1 [#10058, 5-(4-ethyl-benzylidene)-2-thioxothiazolidin-4-one]",62.6,13.7,23.7,inhibition of in vivo tumor growth
"O=[N+]([O-])c1ccc(CCNC2CC3CCC2C3)cc1 (stereo not shown) [#10009, bicyclo[2.2.1]hept-2-yl-[2-(4-nitro-phenyl)-ethyl]-amine]",66.3,10.6,23.1,inhibition of in vivo tumor growth
"Cc1ccc2c(c1)C(=NNc1nc(C)c(C(=O)Nc3cccc([N+](=O)[O-])c3)s1)CC(c1ccccc1)O2 (stereo not shown) [#10050, 4-methyl-2-[N′-(6-methyl-2-phenyl-chroman-4-ylidene)-hydrazino]-thiazole-5-carboxylic acid (3-nitrophenyl)-amide]",58.7,11.7,29.6,inhibition of in vivo tumor growth
